Test results from ChEMBL document CHEMBL3217516, “Library synthesis and cytotoxicity of a family of 2-phenylacrylonitriles and discovery of an estrogen dependent breast cancer lead compound” (Medchemcomm, 2011).

Experiments:
[1] = test system: MCF7; experiment: Selectivity ratio of GI50 for human SW480 cells to GI50 for human MCF7 cells; format: functional
[2] = Cytotoxicity against human MDA-MB-231 cells after 72 hrs by MTT assay; format: cell-based
[3] = test system: MCF7; experiment: Selectivity ratio of GI50 for human A431 cells to GI50 for human MCF7 cells; format: functional
[4] = test system: DU-145; experiment: Selectivity ratio of GI50 for human DU145 cells to GI50 for human MCF7 cells; format: functional
[5] = test system: MCF7; experiment: Selectivity ratio of GI50 for human SJ-G2 cells to GI50 for human MCF7 cells; format: functional
[6] = test system: A2780; experiment: Selectivity ratio of GI50 for human A2780 cells to GI50 for human MCF7 cells; format: functional
[7] = test system: MCF7; experiment: Selectivity ratio of GI50 for human BE(2)-C cells to GI50 for human MCF7 cells; format: functional
[8] = test system: MCF7; experiment: Selectivity ratio of GI50 for human MIA cells to GI50 for human MCF7 cells; format: functional
[9] = test system: MCF7; experiment: Selectivity ratio of GI50 for human H460 cells to GI50 for human MCF7 cells; format: functional
[10] = Selectivity ratio of GI50 for human MCF10A cells to GI50 for human MCF7 cells; format: ADME, cell-based, MCF-10A; conditions: MCF10A cells and MCF7 cells, read-out: RatioGI50
[11] = test system: MCF7; experiment: Selectivity ratio of GI50 for human HT29 cells to GI50 for human MCF7 cells; format: functional
[12] = Cytotoxicity against human MCF10A cells after 72 hrs by MTT assay; format: cell-based, MCF-10A
[13] = test system: MCF7; experiment: Selectivity ratio of GI50 for human MDA-MB-231 cells to GI50 for human MCF7 cells; format: functional
[14] = Cytotoxicity against human MIA cells after 72 hrs by MTT assay; format: functional
[15] = test system: MCF7; experiment: Cytotoxicity against human MCF7 cells after 72 hrs by MTT assay; format: functional; conditions: MCF7, 72 h
[16] = test system: A2780; experiment: Cytotoxicity against human A2780 cells after 72 hrs by MTT assay; format: functional; conditions: A2780, 72 h
[17] = Cytotoxicity against human SJ-G2 cells after 72 hrs by MTT assay; format: functional; conditions: SJ-G2, 72 h
[18] = Cytotoxicity against human H460 cells after 72 hrs by MTT assay; format: functional; conditions: NCI-H460, 72 h
[19] = test system: HT-29; experiment: Cytotoxicity against human HT-29 cells after 72 hrs by MTT assay; format: functional; conditions: HT-29, 72 h
[20] = test system: DU-145; experiment: Cytotoxicity against human DU145 cells after 72 hrs by MTT assay; format: functional; conditions: DU-145, 72 h
[21] = Cytotoxicity against human BE(2)-C cells after 72 hrs by MTT assay; format: functional
[22] = test system: A-431; experiment: Cytotoxicity against human A431 cells after 72 hrs by MTT assay; format: functional; conditions: A-431, 72 h
[23] = test system: SW480; experiment: Cytotoxicity against human SW480 cells after 72 hrs by MTT assay; format: functional; conditions: SW480, 72 h
[24] = test system: DU-145; experiment: Selectivity ratio of GI50 for human H460 cells to GI50 for human DU145 cells; format: functional
[25] = test system: SW480; experiment: Selectivity ratio of GI50 for human H460 cells to GI50 for human SW480 cells; format: functional
[26] = Selectivity ratio of GI50 for human H460 cells to GI50 for human SJ-G2 cells; format: functional
[27] = test system: DU-145; experiment: Selectivity ratio of GI50 for human DU145 cells to GI50 for human MIA cells; format: functional
[28] = test system: A2780; experiment: Selectivity ratio of GI50 for human DU145 cells to GI50 for human A2780 cells; format: functional
[29] = test system: DU-145; experiment: Selectivity ratio of GI50 for human DU145 cells to GI50 for human HT29 cells; format: functional
[30] = Selectivity ratio of GI50 for human H460 cells to GI50 for human A431 cells; format: functional
[31] = Selectivity ratio of GI50 for human H460 cells to GI50 for human MIA cells; format: functional
[32] = test system: A2780; experiment: Selectivity ratio of GI50 for human H460 cells to GI50 for human A2780 cells; format: functional
[33] = test system: DU-145; experiment: Selectivity ratio of GI50 for human DU145 cells to GI50 for human A431 cells; format: functional
[34] = test system: HT-29; experiment: Selectivity ratio of GI50 for human H460 cells to GI50 for human HT29 cells; format: functional
[35] = test system: DU-145; experiment: Selectivity ratio of GI50 for human DU145 cells to GI50 for human BE(2)-C cells; format: functional
[36] = test system: SW480; experiment: Selectivity ratio of GI50 for human DU145 cells to GI50 for human SW480 cells; format: functional
[37] = test system: DU-145; experiment: Selectivity ratio of GI50 for human DU145 cells to GI50 for human SJ-G2 cells; format: functional
[38] = test system: DU-145; experiment: Selectivity ratio of GI50 for human DU145 cells to GI50 for human H460 cells; format: functional
[39] = Selectivity ratio of GI50 for human H460 cells to GI50 for human BE(2)-C cells; format: functional

Compound	GI50 at 72 h [2]	selectivity ratio [10]	GI50 at 72 h [12]	RatioGI50 [13]	GI50 [14]	GI50 [15]	GI50 [16]	GI50 [17]	GI50 [18]	GI50 [19]	GI50 [20]	GI50 [21]	GI50 [22]	GI50 [23]	other results
N#C/C(=C\c1ccc([N+](=O)[O-])cc1)c1ccc(Cl)c(Cl)c1	34 µM	126	16 µM	268	27 µM										RatioGI50 [1]: 543; RatioGI50 [3]: 543; RatioGI50 [4]: 543; RatioGI50 [5]: 543; RatioGI50 [6]: 543; RatioGI50 [7]: 543; RatioGI50 [8]: 543; RatioGI50 [9]: 543; RatioGI50 [11]: 25
N#C/C(=C\c1ccc[nH]1)c1ccc(Cl)c(Cl)c1	46 µM	126	28 µM	268	46 µM	0.56 µM	16 µM	20 µM	5.7 µM	15 µM	41 µM	25 µM	3.2 µM	23 µM	
N#C/C(=C\c1cccc(Cl)c1)c1ccc(Cl)c(Cl)c1					15 µM	7.2 µM	11 µM	12 µM	40 µM	8.4 µM	55 µM	12 µM	16 µM	8.9 µM	RatioGI50 [24]: 5; RatioGI50 [25]: 5; RatioGI50 [26]: 5; RatioGI50 [27]: 5; RatioGI50 [28]: 5; RatioGI50 [29]: 5; RatioGI50 [30]: 5; RatioGI50 [31]: 5; RatioGI50 [32]: 5; RatioGI50 [33]: 5; RatioGI50 [34]: 5; RatioGI50 [35]: 5; RatioGI50 [36]: 5; RatioGI50 [37]: 5; RatioGI50 [38]: 5; RatioGI50 [39]: 5
